Experimental data reported in PMC7265341, “Quantifying CDK inhibitor selectivity in live cells” (Nature Communications, 2020).
Read-outs that look alike come from different tables or passages of the source.

Tests used:
CDK1/Cyclin E1 = CDK1/Cyclin E1 (Homo sapiens, UniProt P06493); assay: NanoBRET live-cell target engagement, CDK1-NanoLuc/Cyclin E1 in HEK-293; type: binding; conditions: 10µM, read-out: CDK1/E1 Inhibition at 10µM (%)
CDK2/Cyclin E1 = CDK2/Cyclin E1 (Homo sapiens, UniProt P24941); assay: NanoBRET live-cell target engagement, CDK2-NanoLuc/Cyclin E1 in HEK-293; type: binding; conditions: 10µM, read-out: CDK2/E1 Inhibition at 10µM (%)
CDK4/Cyclin D1 = CDK4/Cyclin D1 (Homo sapiens, UniProt P11802); assay: NanoBRET live-cell target engagement, NanoLuc-CDK4/Cyclin D1 in HEK-293; type: binding; conditions: 10µM, read-out: CDK4/D1 Inhibition at 10µM (%)
Sequence of CDK4/Cyclin D1 (P11802 whole entry): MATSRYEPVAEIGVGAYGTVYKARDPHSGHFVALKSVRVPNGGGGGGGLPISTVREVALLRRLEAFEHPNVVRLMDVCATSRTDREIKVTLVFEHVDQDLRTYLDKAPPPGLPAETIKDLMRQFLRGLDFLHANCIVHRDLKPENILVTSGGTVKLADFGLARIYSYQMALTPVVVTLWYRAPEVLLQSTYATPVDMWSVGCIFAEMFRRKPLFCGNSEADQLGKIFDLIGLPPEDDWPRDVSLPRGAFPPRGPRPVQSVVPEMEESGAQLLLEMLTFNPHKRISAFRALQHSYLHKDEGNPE
Sequence of CDK4/Cyclin D1 (P24385 whole entry partner): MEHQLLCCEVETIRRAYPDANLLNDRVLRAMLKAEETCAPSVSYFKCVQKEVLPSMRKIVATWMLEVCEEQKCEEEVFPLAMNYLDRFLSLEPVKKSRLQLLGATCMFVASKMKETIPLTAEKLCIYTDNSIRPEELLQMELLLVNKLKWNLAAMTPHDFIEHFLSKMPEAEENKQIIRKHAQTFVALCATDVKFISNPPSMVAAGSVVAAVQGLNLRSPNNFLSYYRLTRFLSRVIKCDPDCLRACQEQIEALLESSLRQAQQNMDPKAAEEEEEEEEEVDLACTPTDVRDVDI

CDK5/CDK5R1 = CDK5/CDK5R1 (Homo sapiens, UniProt Q00535); assay: NanoBRET live-cell target engagement, CDK5-NanoLuc/CDK5R1 in HEK-293; type: binding; conditions: 10µM, read-out: CDK5/CDK5R1 Inhibition at 10µM (%)
CDK6/Cyclin D1 = CDK6/Cyclin D1 (Homo sapiens, UniProt Q00534); assay: NanoBRET live-cell target engagement, NanoLuc-CDK6/Cyclin D1 in HEK-293; type: binding; conditions: 10µM, read-out: CDK6/D1 Inhibition at 10µM (%)
Sequence of CDK6/Cyclin D1 (Q00534 whole entry): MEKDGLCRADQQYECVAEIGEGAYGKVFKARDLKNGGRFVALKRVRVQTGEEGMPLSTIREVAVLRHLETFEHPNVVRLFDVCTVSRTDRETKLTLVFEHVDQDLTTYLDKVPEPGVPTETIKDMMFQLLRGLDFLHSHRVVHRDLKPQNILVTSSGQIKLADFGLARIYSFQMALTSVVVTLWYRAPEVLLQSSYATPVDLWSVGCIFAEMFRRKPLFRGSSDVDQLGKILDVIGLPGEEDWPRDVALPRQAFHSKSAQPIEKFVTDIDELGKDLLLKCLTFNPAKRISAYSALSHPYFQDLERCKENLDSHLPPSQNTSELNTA
Sequence of CDK6/Cyclin D1 (P24385 whole entry partner): as the sequence (P24385 whole entry partner) above

CDK7 = CDK7 (Homo sapiens, UniProt P50613); assay: NanoBRET live-cell target engagement, NanoLuc-CDK7 in HEK-293; type: binding; conditions: 10µM, read-out: CDK7 Inhibition at 10µM (%)
Sequence of CDK7 (P50613 whole entry): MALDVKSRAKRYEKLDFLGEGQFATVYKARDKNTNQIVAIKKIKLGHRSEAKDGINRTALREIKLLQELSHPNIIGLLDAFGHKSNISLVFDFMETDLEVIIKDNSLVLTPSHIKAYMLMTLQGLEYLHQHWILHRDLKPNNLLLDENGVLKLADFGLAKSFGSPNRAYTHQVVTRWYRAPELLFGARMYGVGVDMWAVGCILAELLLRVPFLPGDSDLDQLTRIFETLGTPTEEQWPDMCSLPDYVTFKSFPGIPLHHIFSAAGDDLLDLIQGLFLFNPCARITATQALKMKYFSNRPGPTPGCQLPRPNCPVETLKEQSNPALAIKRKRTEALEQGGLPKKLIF

CDK8/Cyclin C = CDK8/Cyclin C (Homo sapiens, UniProt P49336); assay: NanoBRET live-cell target engagement, NanoLuc-CDK8/Cyclin C in HEK-293; type: binding; conditions: 10µM, read-out: CDK8/C Inhibition at 10µM (%)
Sequence of CDK8/Cyclin C (P49336 whole entry): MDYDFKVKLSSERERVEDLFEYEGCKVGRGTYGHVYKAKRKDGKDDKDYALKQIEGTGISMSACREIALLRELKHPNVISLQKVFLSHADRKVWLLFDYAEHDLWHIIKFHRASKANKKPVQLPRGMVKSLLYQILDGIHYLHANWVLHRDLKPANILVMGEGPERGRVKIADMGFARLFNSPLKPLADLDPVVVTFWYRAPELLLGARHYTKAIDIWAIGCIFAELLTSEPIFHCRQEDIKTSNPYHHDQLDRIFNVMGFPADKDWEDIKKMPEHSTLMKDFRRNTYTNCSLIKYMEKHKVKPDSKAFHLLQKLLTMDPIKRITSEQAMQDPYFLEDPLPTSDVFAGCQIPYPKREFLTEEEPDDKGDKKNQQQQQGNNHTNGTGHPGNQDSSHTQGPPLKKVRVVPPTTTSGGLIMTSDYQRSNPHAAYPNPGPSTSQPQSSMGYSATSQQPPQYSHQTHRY
Sequence of CDK8/Cyclin C (P24863 whole entry partner): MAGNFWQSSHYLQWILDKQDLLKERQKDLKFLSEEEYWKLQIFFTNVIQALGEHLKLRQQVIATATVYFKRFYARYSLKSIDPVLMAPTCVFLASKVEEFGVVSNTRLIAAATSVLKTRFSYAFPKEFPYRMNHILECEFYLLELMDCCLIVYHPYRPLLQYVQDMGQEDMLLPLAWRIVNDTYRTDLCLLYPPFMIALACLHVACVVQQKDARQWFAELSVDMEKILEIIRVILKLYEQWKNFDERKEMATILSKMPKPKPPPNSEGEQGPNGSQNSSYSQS

CDK9/Cyclin K = CDK9/Cyclin K (Homo sapiens, UniProt P50750); assay: NanoBRET live-cell target engagement, NanoLuc-CDK9/Cyclin K in HEK-293; type: binding; conditions: 10µM, read-out: CDK9/K Inhibition at 10µM (%)
CDK11A/Cyclin L2 = target: T1, CDK11A/Cyclin L2 (Homo sapiens, UniProt Q9UQ88); assay: NanoBRET live-cell target engagement, CDK11A-NanoLuc/Cyclin L2 in HEK-293; type: binding; conditions: 10µM, read-out: CDK11a/L2 Inhibition at 10µM (%)
T1 sequence (Q9UQ88 1-783): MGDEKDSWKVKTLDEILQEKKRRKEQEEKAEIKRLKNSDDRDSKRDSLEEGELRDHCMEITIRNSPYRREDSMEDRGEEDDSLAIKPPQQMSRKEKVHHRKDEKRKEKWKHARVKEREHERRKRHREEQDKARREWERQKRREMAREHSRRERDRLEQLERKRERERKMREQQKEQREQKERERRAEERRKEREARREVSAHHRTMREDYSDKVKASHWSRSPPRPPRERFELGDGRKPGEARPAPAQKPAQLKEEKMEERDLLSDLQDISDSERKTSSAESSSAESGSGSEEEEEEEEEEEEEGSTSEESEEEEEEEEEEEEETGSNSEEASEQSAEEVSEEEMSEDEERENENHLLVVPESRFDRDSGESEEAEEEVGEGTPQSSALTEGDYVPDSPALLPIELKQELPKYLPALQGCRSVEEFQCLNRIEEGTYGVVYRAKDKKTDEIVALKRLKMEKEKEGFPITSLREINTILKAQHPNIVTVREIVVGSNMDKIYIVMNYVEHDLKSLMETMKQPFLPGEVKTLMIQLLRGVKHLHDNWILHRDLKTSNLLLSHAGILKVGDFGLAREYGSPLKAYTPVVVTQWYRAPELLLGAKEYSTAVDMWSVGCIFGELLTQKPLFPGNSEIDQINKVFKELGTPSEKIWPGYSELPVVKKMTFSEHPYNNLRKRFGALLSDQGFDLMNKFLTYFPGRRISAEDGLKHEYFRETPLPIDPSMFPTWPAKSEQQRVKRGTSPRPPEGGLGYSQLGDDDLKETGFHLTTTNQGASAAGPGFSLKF

CDK11B/Cyclin L2 = CDK11B/Cyclin L2 (Homo sapiens, UniProt P21127); assay: NanoBRET live-cell target engagement, CDK11B-NanoLuc/Cyclin L2 in HEK-293; type: binding; conditions: 10µM, read-out: CDK11b/L2 Inhibition at 10µM (%)
CDK13/Cyclin K = CDK13/Cyclin K (Homo sapiens, UniProt Q14004); assay: NanoBRET live-cell target engagement, CDK13-NanoLuc/Cyclin K in HEK-293; type: binding; conditions: 10µM, read-out: CDK13/K Inhibition at 10µM (%)
CDK14/Cyclin Y = CDK14/Cyclin Y (Homo sapiens, UniProt O94921); assay: NanoBRET live-cell target engagement, CDK14-NanoLuc/Cyclin Y in HEK-293; type: binding; conditions: 10µM, read-out: CDK14/Y Inhibition at 10µM (%)
Sequence of CDK14/Cyclin Y (O94921 whole entry): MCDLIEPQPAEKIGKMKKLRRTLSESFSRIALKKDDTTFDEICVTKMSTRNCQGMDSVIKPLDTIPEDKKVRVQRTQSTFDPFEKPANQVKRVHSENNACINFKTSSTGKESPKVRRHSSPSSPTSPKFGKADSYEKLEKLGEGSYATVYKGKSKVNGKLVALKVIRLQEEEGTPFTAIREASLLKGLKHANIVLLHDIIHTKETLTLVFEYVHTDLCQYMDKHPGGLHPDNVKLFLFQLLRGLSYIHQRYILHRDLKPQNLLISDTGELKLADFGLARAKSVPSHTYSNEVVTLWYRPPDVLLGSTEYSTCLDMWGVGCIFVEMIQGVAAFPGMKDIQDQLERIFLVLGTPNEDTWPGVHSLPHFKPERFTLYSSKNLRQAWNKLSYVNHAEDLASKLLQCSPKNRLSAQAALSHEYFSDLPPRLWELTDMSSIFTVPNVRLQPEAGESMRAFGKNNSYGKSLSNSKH
Sequence of CDK14/Cyclin Y (Q8ND76 whole entry partner): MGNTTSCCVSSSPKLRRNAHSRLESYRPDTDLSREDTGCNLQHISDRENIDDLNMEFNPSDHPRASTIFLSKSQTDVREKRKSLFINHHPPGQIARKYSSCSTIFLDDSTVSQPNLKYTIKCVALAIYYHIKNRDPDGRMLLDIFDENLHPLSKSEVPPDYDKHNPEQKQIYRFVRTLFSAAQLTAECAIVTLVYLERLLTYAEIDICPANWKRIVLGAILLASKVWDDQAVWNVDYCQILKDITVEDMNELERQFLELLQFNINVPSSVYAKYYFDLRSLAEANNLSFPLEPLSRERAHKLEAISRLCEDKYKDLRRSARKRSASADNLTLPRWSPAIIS

CDK15/Cyclin Y = CDK15/Cyclin Y (Homo sapiens, UniProt Q96Q40); assay: NanoBRET live-cell target engagement, NanoLuc-CDK15/Cyclin Y in HEK-293; type: binding; conditions: 10µM, read-out: CDK15/Y Inhibition at 10µM (%)
Sequence of CDK15/Cyclin Y (Q96Q40 whole entry): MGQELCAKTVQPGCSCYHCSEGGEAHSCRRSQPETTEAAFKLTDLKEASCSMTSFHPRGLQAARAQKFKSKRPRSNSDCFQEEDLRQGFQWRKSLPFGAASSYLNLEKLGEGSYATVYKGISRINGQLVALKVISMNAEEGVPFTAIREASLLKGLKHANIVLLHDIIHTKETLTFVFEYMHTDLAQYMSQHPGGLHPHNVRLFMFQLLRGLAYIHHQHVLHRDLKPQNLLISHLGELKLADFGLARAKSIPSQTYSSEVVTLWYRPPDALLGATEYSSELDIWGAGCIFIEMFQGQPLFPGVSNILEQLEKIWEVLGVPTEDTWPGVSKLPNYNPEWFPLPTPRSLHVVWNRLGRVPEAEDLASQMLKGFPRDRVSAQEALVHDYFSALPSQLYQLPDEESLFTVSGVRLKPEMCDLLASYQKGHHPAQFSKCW
Sequence of CDK15/Cyclin Y (Q8ND76 whole entry partner): as the sequence (Q8ND76 whole entry partner) above

CDK16/Cyclin Y = CDK16/Cyclin Y (Homo sapiens, UniProt Q00536); assay: NanoBRET live-cell target engagement, CDK16-NanoLuc/Cyclin Y in HEK-293; type: binding; conditions: for inhibition at 10 µM: read-out: CDK16/Y Inhibition at 10µM (%); for IC50: read-out: CDK16/Y IC50
Sequence of CDK16/Cyclin Y (Q00536 whole entry): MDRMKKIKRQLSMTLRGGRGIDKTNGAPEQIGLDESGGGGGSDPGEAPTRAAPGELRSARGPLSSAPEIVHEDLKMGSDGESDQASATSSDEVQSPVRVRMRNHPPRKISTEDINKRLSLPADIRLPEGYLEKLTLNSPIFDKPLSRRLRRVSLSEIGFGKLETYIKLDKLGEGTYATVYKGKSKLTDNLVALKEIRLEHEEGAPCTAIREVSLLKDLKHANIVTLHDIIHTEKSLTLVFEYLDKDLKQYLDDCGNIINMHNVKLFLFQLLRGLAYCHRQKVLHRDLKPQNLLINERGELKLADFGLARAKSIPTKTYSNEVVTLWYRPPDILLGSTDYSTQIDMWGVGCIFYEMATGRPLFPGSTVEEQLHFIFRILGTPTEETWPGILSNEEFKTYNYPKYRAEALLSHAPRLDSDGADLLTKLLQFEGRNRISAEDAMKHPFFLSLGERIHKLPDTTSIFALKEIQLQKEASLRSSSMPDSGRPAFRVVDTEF
Sequence of CDK16/Cyclin Y (Q8ND76 whole entry partner): as the sequence (Q8ND76 whole entry partner) above

CDK17/Cyclin Y = CDK17/Cyclin Y (Homo sapiens, UniProt Q00537); assay: NanoBRET live-cell target engagement, CDK17-NanoLuc/Cyclin Y in HEK-293; type: binding; conditions: for inhibition at 10 µM: read-out: CDK17/Y Inhibition at 10µM (%); for IC50: read-out: CDK17/Y IC50
CDK18/Cyclin Y = CDK18/Cyclin Y (Homo sapiens, UniProt Q07002); assay: NanoBRET live-cell target engagement, CDK18-NanoLuc/Cyclin Y in HEK-293; type: binding; conditions: 10µM, read-out: CDK18/Y Inhibition at 10µM (%)
CDK20/Cyclin H = CDK20/Cyclin H (Homo sapiens, UniProt Q8IZL9); assay: NanoBRET live-cell target engagement, NanoLuc-CDK20/Cyclin H in HEK-293; type: binding; conditions: 10µM, read-out: CDK20/H Inhibition at 10µM (%)
CDK19/Cyclin C = CDK19/Cyclin C (Homo sapiens, UniProt Q9BWU1); assay: NanoBRET live-cell target engagement, NanoLuc-CDK19/Cyclin C in HEK-293; conditions: read-out: CDK19/C Inhibition at 10µM (%), 10µM
Sequence of CDK19/Cyclin C (Q9BWU1 whole entry): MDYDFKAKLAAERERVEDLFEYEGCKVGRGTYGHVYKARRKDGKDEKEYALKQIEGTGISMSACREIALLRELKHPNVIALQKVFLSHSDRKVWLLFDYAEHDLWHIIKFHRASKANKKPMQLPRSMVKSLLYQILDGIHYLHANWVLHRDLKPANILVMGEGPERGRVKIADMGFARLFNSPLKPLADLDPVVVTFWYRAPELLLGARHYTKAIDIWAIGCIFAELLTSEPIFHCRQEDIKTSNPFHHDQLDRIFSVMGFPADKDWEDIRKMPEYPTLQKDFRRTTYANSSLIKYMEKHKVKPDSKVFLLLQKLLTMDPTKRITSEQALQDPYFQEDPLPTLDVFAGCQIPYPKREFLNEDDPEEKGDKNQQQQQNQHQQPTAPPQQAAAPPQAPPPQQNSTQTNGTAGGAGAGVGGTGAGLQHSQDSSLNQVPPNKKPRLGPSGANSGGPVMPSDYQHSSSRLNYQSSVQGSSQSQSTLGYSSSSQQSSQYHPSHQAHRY
Sequence of CDK19/Cyclin C (P24863 whole entry partner): as the sequence (P24863 whole entry partner) above

CDK10/Cyclin L2 = CDK10/Cyclin L2 (Homo sapiens, UniProt Q15131); assay: NanoBRET live-cell target engagement, CDK10-NanoLuc/Cyclin L2 in HEK-293; conditions: read-out: CDK10/L2 Inhibition at 10µM (%), 10µM
Sequence of CDK10/Cyclin L2 (Q15131 whole entry): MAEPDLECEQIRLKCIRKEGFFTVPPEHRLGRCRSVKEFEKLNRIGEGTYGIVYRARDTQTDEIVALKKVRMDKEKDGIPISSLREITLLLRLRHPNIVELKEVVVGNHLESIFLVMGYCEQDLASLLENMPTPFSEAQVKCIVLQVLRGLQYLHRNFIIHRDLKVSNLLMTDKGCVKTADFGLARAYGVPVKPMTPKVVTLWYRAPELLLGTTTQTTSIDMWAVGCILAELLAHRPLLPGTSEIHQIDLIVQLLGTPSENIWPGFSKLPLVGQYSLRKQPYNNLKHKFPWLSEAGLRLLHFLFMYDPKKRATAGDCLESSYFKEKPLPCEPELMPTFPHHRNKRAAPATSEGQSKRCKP

- inhibition at 10 µM (CDK1/Cyclin E1; average of experiments): 8.6%
- inhibition at 10 µM (CDK1/Cyclin E1; independent experiment 1): 17.2%
- inhibition at 10 µM (CDK1/Cyclin E1; independent experiment 2): -0.0634%
- inhibition at 10 µM (CDK2/Cyclin E1; average of experiments): 0.461%
- inhibition at 10 µM (CDK2/Cyclin E1; independent experiment 1): 1.5%
- inhibition at 10 µM (CDK2/Cyclin E1; independent experiment 2): -0.535%
- inhibition at 10 µM (CDK4/Cyclin D1; average of experiments): 93%
- inhibition at 10 µM (CDK4/Cyclin D1; independent experiment 1): 97%
- inhibition at 10 µM (CDK4/Cyclin D1; independent experiment 2): 88.9%
- inhibition at 10 µM (CDK5/CDK5R1; average of experiments): -10.2%
- inhibition at 10 µM (CDK5/CDK5R1; independent experiment 1): 2.3%
- inhibition at 10 µM (CDK5/CDK5R1; independent experiment 2): -22.7%
- inhibition at 10 µM (CDK6/Cyclin D1; average of experiments): 99.4%
- inhibition at 10 µM (CDK6/Cyclin D1; independent experiment 1): 98.4%
- inhibition at 10 µM (CDK6/Cyclin D1; independent experiment 2): 100%
- inhibition at 10 µM (CDK7; average of experiments): 8.6%
- inhibition at 10 µM (CDK7; independent experiment 1): -3.8%
- inhibition at 10 µM (CDK7; independent experiment 2): 20.9%
- inhibition at 10 µM (CDK8/Cyclin C; average of experiments): 7.6%
- inhibition at 10 µM (CDK8/Cyclin C; independent experiment 1): 7.9%
- inhibition at 10 µM (CDK8/Cyclin C; independent experiment 2): 7.4%
- inhibition at 10 µM (CDK9/Cyclin K; average of experiments): 38.1%
- inhibition at 10 µM (CDK9/Cyclin K; independent experiment 1): 30%
- inhibition at 10 µM (CDK9/Cyclin K; independent experiment 2): 46.2%
- inhibition at 10 µM (CDK11A/Cyclin L2; average of experiments): 6.5%
- inhibition at 10 µM (CDK11A/Cyclin L2; independent experiment 1): 7.3%
- inhibition at 10 µM (CDK11A/Cyclin L2; independent experiment 2): 5.8%
- inhibition at 10 µM (CDK11B/Cyclin L2; average of experiments): 23.5%
- inhibition at 10 µM (CDK11B/Cyclin L2; independent experiment 1): 6.3%
- inhibition at 10 µM (CDK11B/Cyclin L2; independent experiment 2): 40.7%
- inhibition at 10 µM (CDK13/Cyclin K; average of experiments): 3.3%
- inhibition at 10 µM (CDK13/Cyclin K; independent experiment 1): 1.9%
- inhibition at 10 µM (CDK13/Cyclin K; independent experiment 2): 4.7%
- inhibition at 10 µM (CDK14/Cyclin Y; average of experiments): 11.3%
- inhibition at 10 µM (CDK14/Cyclin Y; independent experiment 1): 16.4%
- inhibition at 10 µM (CDK14/Cyclin Y; independent experiment 2): 6.2%
- inhibition at 10 µM (CDK15/Cyclin Y; average of experiments): 8%
- inhibition at 10 µM (CDK15/Cyclin Y; independent experiment 1): 2.9%
- inhibition at 10 µM (CDK15/Cyclin Y; independent experiment 2): 13.1%
- inhibition at 10 µM (CDK16/Cyclin Y; independent experiment 1): 57.8%
- inhibition at 10 µM (CDK16/Cyclin Y; independent experiment 2): 35.1%
- IC50 (CDK16/Cyclin Y; average (± SEM where n=3)): 600 ± 200 nM
- IC50 (CDK16/Cyclin Y; independent experiment 1): 162 nM
- IC50 (CDK16/Cyclin Y; independent experiment 2): 870 nM
- IC50 (CDK16/Cyclin Y; independent experiment 3): 721 nM
- inhibition at 10 µM (CDK17/Cyclin Y; average of experiments): 41.1%
- inhibition at 10 µM (CDK17/Cyclin Y; independent experiment 1): 49.5%
- inhibition at 10 µM (CDK17/Cyclin Y; independent experiment 2): 32.7%
- IC50 (CDK17/Cyclin Y; average (± SEM where n=3)): 500 ± 200 nM
- IC50 (CDK17/Cyclin Y; independent experiment 1): 113 nM
- IC50 (CDK17/Cyclin Y; independent experiment 2): 800 nM
- IC50 (CDK17/Cyclin Y; independent experiment 3): 628 nM
- inhibition at 10 µM (CDK18/Cyclin Y; average of experiments): 13.4%
- inhibition at 10 µM (CDK18/Cyclin Y; independent experiment 1): 6.3%
- inhibition at 10 µM (CDK18/Cyclin Y; independent experiment 2): 20.6%
- inhibition at 10 µM (CDK20/Cyclin H; independent experiment 1): 10%
- inhibition at 10 µM (CDK20/Cyclin H; independent experiment 2): 5.6%
- inhibition at 10 µM (CDK19/Cyclin C; average of experiments): 9.4%
- inhibition at 10 µM (CDK19/Cyclin C; independent experiment 1): 10.3%
- inhibition at 10 µM (CDK19/Cyclin C; independent experiment 2): 8.5%
- inhibition at 10 µM (CDK10/Cyclin L2; average of experiments): 11.6%
- inhibition at 10 µM (CDK10/Cyclin L2; independent experiment 1): 13.3%
- inhibition at 10 µM (CDK10/Cyclin L2; independent experiment 2): 9.9%
SMILES: CN1CCN(c2ccc(Nc3ncc4cc5n(c4n3)C3(CCCCC3)CNC5=O)nc2)CC1 [Trilaciclib]
